Results as given in US6537587B1, “Compositions containing muscle-derived active agents” (Can-Fite Biopharma Ltd., priority 1999, dated 2003).

Test system: peripheral blood leukocytes and neutrophils
Conditions: cyclophosphamide only, 50 mg/kg i.p.; blood at 96 hours; FIG. 4
Method: Mice were injected intraperitoneally (i.p.) with 50 mg/kg body weight of cyclophospharnide. The mice were then divided into the following three groups:
2. Mice receiving cyclophosphamide only (control 1); and
3. An additional group of mice received oral administration of water only (control 2).
Ninety six hours after the beginning of receiving the above treatments, blood samples were taken from each of the treated mice. Blood cell counts were carried out in a Coulter counter and differential cell counts were performed on smear preparations stained with May-Grunvald-Giemsa solution.

SMILES: O=P1(N(CCCl)CCCl)NCCCO1 (centres unmarked) [cyclophosphamide]
- number of neutrophils compared to mice without chemotherapeutic treatment (control 2): reduced
- number of peripheral blood leukocytes compared to mice without chemotherapeutic treatment (control 2): reduced
